What all share (assay type): cell-based
One experiment relates to olfactory TAARs. Kind of experiment: TAAR reporter gene assay, panel of mouse and rat TAARs in HEK293 cells. As to conditions: for TAAR activation: mouse and rat TAARs. An excerpt:
(§1) Here, we set out to identify agonists for additional mouse and rat TAARs. We examined odor response profiles using a previously established reporter gene assay based on cAMP-dependent odor transduction in olfactory sensory neurons (40, 42). Briefly, TAAR plasmids were transfected into HEK293 cells along with a cAMP-dependent reporter gene encoding secreted alkaline phosphatase (CRE-SEAP). TAARs were expressed both in unmodified form and as fusion proteins with an N-terminal sequence of bovine rhodopsin (‘Rho tag’) that promotes cell surface expression of some chemosensory receptors (35). Transfected cells were incubated with test chemicals, and phosphatase activity was quantified with a fluorescent substrate as a reporter for TAAR activation. In initial experiments, we tested 38 different odorant mixtures containing 244 structurally diverse test chemicals (2-5 μM) for the ability to activate each mTAAR. Subsequently, we tested 73 amines that included known mTAAR agonists and related chemicals for the ability to activate each rTAAR.
TAAR functional assays. Full Taar coding regions were cloned into pcDNA3.1-(Invitrogen) with or without a 5′ DNA extension of 69 bp encoding the first 20 amino acids of bovine rhodopsin followed by a cloning linker ([…]). Point mutations were introduced in mTAAR7e and mTAAR7f by overlap extension PCR. Functional assays were performed as described (40, 42). Fluorescence was measured on an EnVision plate reader (Perkin Elmer) and SEAP activity graphed as relative fluorescence of a phosphatase substrate.
(Reporter assays use an easily measured gene product as a stand-in for the process of interest.)

In a further experiment the target is T1, rTAAR7b (Rattus norvegicus, UniProt Q923X8).
T1 sequence (Q923X8 1-358): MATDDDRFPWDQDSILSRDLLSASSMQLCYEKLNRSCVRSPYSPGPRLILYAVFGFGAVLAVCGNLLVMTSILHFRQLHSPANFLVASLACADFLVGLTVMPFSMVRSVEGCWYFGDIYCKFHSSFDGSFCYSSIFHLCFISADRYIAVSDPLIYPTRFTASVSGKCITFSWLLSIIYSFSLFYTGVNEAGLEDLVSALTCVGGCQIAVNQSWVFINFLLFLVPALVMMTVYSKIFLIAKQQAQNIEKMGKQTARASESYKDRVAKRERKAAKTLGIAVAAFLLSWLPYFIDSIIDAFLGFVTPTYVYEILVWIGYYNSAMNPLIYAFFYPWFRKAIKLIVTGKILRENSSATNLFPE
In words: TAAR reporter gene assay, rTAAR7b. Further details: Full Taar coding regions were cloned into pcDNA3.1-(Invitrogen); expressed in transfected cells; host or cells: HEK293.
Excerpt: as §1
(§2) TAAR functional assays. […] Fluorescence was measured on an EnVision plate reader (Perkin Elmer) and SEAP activity graphed as relative fluorescence of a phosphatase substrate.

Another experiment has as its target T2, rTAAR7h (Rattus norvegicus, UniProt Q923Y4).
T2 sequence (Q923Y4 1-358): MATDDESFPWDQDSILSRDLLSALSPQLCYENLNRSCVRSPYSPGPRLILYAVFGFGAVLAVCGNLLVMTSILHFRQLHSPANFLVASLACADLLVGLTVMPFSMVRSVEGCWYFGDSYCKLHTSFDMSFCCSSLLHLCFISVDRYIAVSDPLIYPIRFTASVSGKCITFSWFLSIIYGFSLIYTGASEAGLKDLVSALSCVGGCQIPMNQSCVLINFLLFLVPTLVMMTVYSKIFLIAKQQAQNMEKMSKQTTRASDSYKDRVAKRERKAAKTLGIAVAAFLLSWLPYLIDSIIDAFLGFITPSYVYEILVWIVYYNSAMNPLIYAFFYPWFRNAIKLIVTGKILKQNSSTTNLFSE
Kind of experiment: TAAR reporter gene assay, rTAAR7h. Further details: Full Taar coding regions were cloned into pcDNA3.1-(Invitrogen); Rho tag (first 20 aa of bovine rhodopsin + linker); expressed in transfected cells; host or cells: HEK293.
Excerpt: as §1, §2

Another experiment deals with T3, mTAAR7b (Mus musculus, UniProt Q5QD11).
T3 sequence (Q5QD11 1-358): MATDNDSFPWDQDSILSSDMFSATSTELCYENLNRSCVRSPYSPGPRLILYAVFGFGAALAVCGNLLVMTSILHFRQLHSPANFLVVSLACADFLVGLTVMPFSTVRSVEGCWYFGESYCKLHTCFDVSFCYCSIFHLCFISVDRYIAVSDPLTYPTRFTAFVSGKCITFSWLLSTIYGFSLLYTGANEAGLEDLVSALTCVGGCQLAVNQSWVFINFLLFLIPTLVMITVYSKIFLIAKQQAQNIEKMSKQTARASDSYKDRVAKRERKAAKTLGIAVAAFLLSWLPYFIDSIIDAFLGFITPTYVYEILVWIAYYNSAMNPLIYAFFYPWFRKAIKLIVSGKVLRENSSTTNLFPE
In words: TAAR reporter gene assay, mTAAR7b. Details: Full Taar coding regions were cloned into pcDNA3.1-(Invitrogen); Rho tag (first 20 aa of bovine rhodopsin + linker); expressed in transfected cells; host or cells: HEK293.
Excerpt: as §1, §2

For another experiment, the target named is T4, rTAAR7d (Rattus norvegicus, UniProt Q923X5).
T4 sequence (Q923X5 1-358): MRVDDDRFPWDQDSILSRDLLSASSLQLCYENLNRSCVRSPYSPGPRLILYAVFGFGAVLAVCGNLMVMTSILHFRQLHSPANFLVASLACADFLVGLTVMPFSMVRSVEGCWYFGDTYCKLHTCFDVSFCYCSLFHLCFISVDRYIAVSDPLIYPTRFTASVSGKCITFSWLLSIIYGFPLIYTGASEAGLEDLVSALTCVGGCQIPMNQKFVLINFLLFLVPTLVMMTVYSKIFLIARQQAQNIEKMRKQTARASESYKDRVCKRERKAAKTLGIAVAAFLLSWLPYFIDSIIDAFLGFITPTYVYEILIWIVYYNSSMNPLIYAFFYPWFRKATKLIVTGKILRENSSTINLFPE
Kind of experiment: TAAR reporter gene assay, rTAAR7d. Further details: Full Taar coding regions were cloned into pcDNA3.1-(Invitrogen); Rho tag (first 20 aa of bovine rhodopsin + linker); expressed in transfected cells; host or cells: HEK293.
Excerpt: as §1, §2

For `NCCc1ccccc1` [2-phenylethylamine], the “activation of other olfactory TAARs with identified ligands” value in the experiment with olfactory TAARs (10 μM (FIG. 2D)) is recorded as “did not similarly activate”.

Consider `CN(C)CCc1ccccc1` [ligand 6, N,N-dimethyl-2-phenylethylamine], for which the TAAR activation entry in the experiment on olfactory TAARs is “activated different TAAR7 paralogs”. The rTAAR7b activation entry at rTAAR7b was “not”. For the same molecule, the rTAAR7h activation result on rTAAR7h is reported as “activated”. The mTAAR7b activation entry on mTAAR7b is “not”. Further, on rTAAR7d, the rTAAR7d activation result is “not”.

`CN(C)C1CCCCC1` [ligand 10, N,N-dimethylcyclohexylamine]: in the experiment on olfactory TAARs, the TAAR activation result is on record as “activated different TAAR7 paralogs”. Also, the rTAAR7b activation entry at rTAAR7b is reported as “activated”. Further, the rTAAR7h activation result at rTAAR7h was “not”. The mTAAR7b activation result on mTAAR7b is recorded as “activated”. Also, the rTAAR7d activation result on rTAAR7d is reported as “activated”.

The record behind these values is US20140221499A1, “NOVEL RODENT CONTROL AGENTS AND USES THEREOF” (priority 2011, published 2014).
